Data published in ChEMBL document CHEMBL1139964, “Biopartitioning micellar chromatography to predict mutagenicity of aromatic amines” (Eur J Med Chem, 2007).
≈ marks a conversion by molar mass, not a printed value.

What was measured:
[1] = Solubility in water; assay type: physicochemical; conditions: buffer
[2] = Partition coefficient, log P of the compound; assay type: physicochemical; conditions: octanol/water

Structure (SMILES)	Solubility [1]	logP [2]
Nc1ccc2c3c(cccc13)-c1ccccc1-2	0.715 g/L (≈ 3.29 mM)	
Nc1c(Br)cc([N+](=O)[O-])cc1[N+](=O)[O-]		2.73
Nc1cccc2cc3ccccc3cc12	2.59 g/L (≈ 13.4 mM)	
Nc1ccc2c(c1)Cc1ccccc1-2	8.78 g/L (≈ 48.4 mM)	
Nc1ccc(Cc2ccc(N)cc2)cc1	1 10^3g/L	
Nc1ccc2cc3ccccc3cc2c1 [2-AMINOANTHRACENE]	1.3 g/L (≈ 6.73 mM)	2.62
Nc1ccc(Br)cc1 [4-BROMOANILINE]	707 g/L (≈ 4110 mM)	
Nc1ccc2ccc3cccc4ccc1c2c34 [AMINOPYRENE]	0.576 g/L (≈ 2.65 mM)	4.99
Cc1cc(-c2ccc(N)c(C)c2)ccc1N [ORTHOTOLIDINE]	1.3 10^3g/L	
